These molecules were tested against EP4 (Homo sapiens, UniProt P35408) (assay: EP4 Antagonism by CRE-PLAP Reporter Assay (SE302 cells, PGE2-stimulated)). Conditions: SE302 (HEK293) cells, 3 ng/mL PGE2, overnight; single or multiple assay average values.
Chain of EP4 (P35408 whole entry): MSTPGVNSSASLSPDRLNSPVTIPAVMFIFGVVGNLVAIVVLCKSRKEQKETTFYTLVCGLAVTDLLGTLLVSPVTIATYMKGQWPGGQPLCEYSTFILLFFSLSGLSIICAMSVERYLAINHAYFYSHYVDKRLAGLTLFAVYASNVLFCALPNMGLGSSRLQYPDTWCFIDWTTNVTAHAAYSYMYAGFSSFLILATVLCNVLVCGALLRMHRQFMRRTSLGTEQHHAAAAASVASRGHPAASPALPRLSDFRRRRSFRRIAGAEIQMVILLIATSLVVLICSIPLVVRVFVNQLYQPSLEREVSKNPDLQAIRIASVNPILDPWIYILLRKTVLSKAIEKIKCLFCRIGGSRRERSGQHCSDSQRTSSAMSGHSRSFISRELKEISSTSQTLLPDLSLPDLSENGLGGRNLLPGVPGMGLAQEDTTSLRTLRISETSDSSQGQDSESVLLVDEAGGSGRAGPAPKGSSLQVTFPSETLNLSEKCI
Type: cell-based
Design: HEK293 cells express endogenous EP4; endogenous in cells; host or cells: SE302 (HEK293 clone with CRE-PLAP reporter)
From the text: PGE2 and [^3H]-labelled PGE2 were purchased from Cayman Chemical (Ann Arbor, Mich.) and Perkin Elmer (Waltham, Mass.), respectively. Mouse breast 4T1 cells (CRL-2539) were obtained from American Tissue Culture Collection. SE302 cell line is a clone of the HEK293 cells containing cAMP response element (CRE) promoter that when activated drives secretion of placental-like alkaline phosphatase (PLAP). HEK293 cells express endogenous EP4 and show induction of PLAP in response to PGE2 and EP4 agonists, but not EP1, 2 or 3 agonists (Chen Q, Muramoto K, Masaaki N, Ding Y, Yang H, Mackey M, Li W, Inoue Y, Ackermann K, Shrota H, Matsumoto I, Spyvee M, Schiller S, Sumida T, Gusovsky F, and Lamphier M. A novel antagonist of the prostaglandin E2 EP4 receptor inhibits Th1 differentiation and Th17 expansion and is orally active in arthritis models. British J Pharmacol, 2010, 160: 292-310). BalB/C female mice at 7-8 week age were purchased from Jackson Laboratory (Bar Harbor, Me.). Mice were maintained under specific pathogen-free conditions.
EP4 Antagonism by CRE-PLAP Reporter Assay: SE302 cells were maintained in DMEM/F12 (50:50) (MediaTech) supplemented with 10% FBS (Tissue Culture Biologicals) plus penicillin/streptomycin. When used for assays, cells were plated in a 96-well plate at 2×10^4 cells/100 μL/well in serum-free assay medium (DMEM/F12 supplemented with 0.1% BSA plus penicillin/streptomycin) and incubated for 4-6 h. Cells were then stimulated with 3 ng/mL of PGE2 in the presence or absence of various concentrations of test compound overnight, and PLAP activity was measured by mixing 15 μL of culture supernatants with 75 μL of Lumi-phos (Lumigen, Inc.) and 60 μL of assay buffer containing 8 mmol/L MgSO4 in 0.1 mol/L carbonate-bicarbonate buffer pH11 in a new 96-well black plate and incubated for 2 h at room temperature. The intensity of luminescence, which reflected the PLAP activity in the supernatant, was quantified with an Envision 2101 Multilabel Reader. Values obtained from DMSO treated samples in the presence of PGE2 were defined as 100% of control, whereas values obtained from DMSO treated samples in the absence of PGE2 were defined as 0% of control. % of control for compound treated samples was calculated as follows: (actual reading−0% of control)/(100% of control−0% of control)×100. IC50 value for each individual experiment was calculated using GraphPad Prism 6.02 (Lake Forest, Calif.) with % of control values.
Compounds of the present invention were assayed according to the methods as described above, and IC50 values, which may be single assay values or multiple assay average values, are summarized in Table 1. Compounds marked “ABS” show absolute stereochemistry.
C[C@H](NC(=O)c1c(C(F)(F)F)nn2c1N(Cc1cccc(C(F)(F)F)c1)CCC2)c1ccc(C(=O)O)cc1 [Compound 44, (S)-4-(1-(2-(trifluoromethyl)-4-(3-(trifluoromethyl)benzyl)-4,5,6,7-tetrahydropyrazolo[1,5-a]pyrimidine-3-carboxamido)ethyl)benzoic Acid] was tested, and the IC50 was 6.83 nM.
Work on O=C(O)c1ccc([C@H](CO)NC(=O)c2c(C(F)(F)F)nn3c2N(Cc2cccc(C(F)(F)F)c2)CC3)cc1 [Compound 87, (R)-4-(2-hydroxy-1-(6-(trifluoromethyl)-1-(3-(trifluoromethyl)benzyl)-2,3-dihydro-1H-imidazo[1,2-b]pyrazole-7-carboxamido)ethyl)benzoic Acid] yielded an IC50 of 34.7 nM.
In the case of C[C@H](NC(=O)c1c(C(F)(F)F)nn2c1N(Cc1ccc(OC(F)(F)F)cc1)CC2)c1ccc(C(=O)O)cc1 [Compound 10, (S)-4-(1-(1-(4-(trifluoromethoxy)benzyl)-6-(trifluoromethyl)-2,3-dihydro-1H-imidazo[1,2-b]pyrazole-7-carboxamido)ethyl)benzoic Acid], the IC50 is reported as 12.5 nM.
With C[C@H](NC(=O)c1c(CO)nn2c1N(Cc1cccc(C(F)(F)F)c1)CC2)c1ccc(C(=O)O)cc1 [Compound 93, (S)-4-(1-(6-(Hydroxymethyl)-1-(3-(trifluoromethyl)benzyl)-2,3-dihydro-1H-imidazo[1,2-b]pyrazole-7-carboxamido)ethyl)benzoic Acid] the IC50 was 6.59 nM.
Molecule C[C@H](NC(=O)c1c(C(F)(F)F)nn2c1N(Cc1cccc(N(C)C)c1)CC2)c1ccc(C(=O)O)cc1 [Compound 89, (S)-4-(1-(1-(3-(dimethylamino)benzyl)-6-(trifluoromethyl)-2,3-dihydro-1H-imidazo[1,2-b]pyrazole-7-carboxamido)ethyl)benzoic Acid] has an IC50 of 1.57 nM.
For Cc1cn(Cc2cccc(C(F)(F)F)c2)c2c(C(=O)N[C@@H](C)c3ccc(C(=O)O)cc3)c(C(F)(F)F)nn12 [Compound 82, (S)-4-(1-(3-methyl-6-(trifluoromethyl)-1-(3-(trifluoromethyl)benzyl)-1H-imidazo[1,2-b]pyrazole-7-carboxamido)ethyl)benzoic acid], the IC50 was 1.1 nM.
For C[C@H](NC(=O)c1c(C(F)(F)F)nn2c1N(Cc1cc(N(C)C)cc(C(F)(F)F)c1)CC2)c1ccc(C(=O)O)cc1 [Compound 90, (S)-4-(1-(1-(3-(dimethylamino)-5-(trifluoromethyl)benzyl)-6-(trifluoromethyl)-2,3-dihydro-1H-imidazo[1,2-b]pyrazole-7-carboxamido)ethyl)benzoic Acid], the IC50 was 6.37 nM.
C[C@H](NC(=O)c1c(C(F)(F)F)nn2c1N(Cc1cccc(C(F)(F)F)c1)CC2)c1ccc(C(=O)NS(=O)(=O)c2ccc(F)c(F)c2)cc1 [Compound 53, (S)—N-(1-(4-(((3,4-difluorophenyl)sulfonyl)carbamoyl)phenyl)ethyl)-6-(trifluoromethyl)-1-(3-(trifluoromethyl)benzyl)-2,3-dihydro-1H-imidazo[1,2-b]pyrazole-7-carboxamide] showed an IC50 of 3.91 nM.
Molecule COc1ccc(CN2CCn3nc(C(F)(F)F)c(C(=O)N[C@@H](C)c4ccc(C(=O)O)cc4)c32)cc1 [Compound 8, (S)-4-(1-(1-(4-methoxybenzyl)-6-(trifluoromethyl)-2,3-dihydro-1H-imidazo[1,2-b]pyrazole-7-carboxamido)ethyl)benzoic Acid] has an IC50 of 8.03 nM.
For C[C@H](NC(=O)c1c(C(F)(F)F)nn2c1N(Cc1cccc(OCCF)c1)CC2)c1ccc(C(=O)O)cc1 [Compound 75, (S)-4-(1-(1-(3-(2-fluoroethoxy)benzyl)-6-(trifluoromethyl)-2,3-dihydro-1H-imidazo[1,2-b]pyrazole-7-carboxamido)ethyl)benzoic Acid], the IC50 was 4.66 nM.
Molecule COC(=O)c1ccc([C@H](C)NC(=O)c2c(C(F)(F)F)nn3c2N(C(=O)c2ccccc2F)CC3)cc1 [Compound 102] has an IC50 of 39 nM.
Work on C[C@H](NC(=O)c1c(C(F)(F)F)nn2c1N(Cc1ccc(C(F)(F)F)cc1)CC2)c1ccc(-c2nn[nH]n2)cc1 [Compound 37, (S)—N-(1-(4-(2H-tetrazol-5-yl)phenyl)ethyl)-6-(trifluoromethyl)-1-(4-(trifluoromethyl)benzyl)-2,3-dihydro-1H-imidazo[1,2-b]pyrazole-7-carboxamide] yielded an IC50 of 0.45 nM.
C[C@H](NC(=O)c1c(C(F)(F)F)nn2c1N(Cc1cccc(C(F)(F)F)c1)CC2)c1ccc(C(=O)O)nc1 [Compound 38, (S)-5-(1-(6-(trifluoromethyl)-1-(3-(trifluoromethyl)benzyl)-2,3-dihydro-1H-imidazo[1,2-b]pyrazole-7-carboxamido)ethyl)picolinic Acid] was tested, and the IC50 was 17.1 nM.
In the case of C[C@H](NC(=O)c1c(C(F)(F)F)nn2c1N(Cc1ccc(O)cc1)CC2)c1ccc(C(=O)O)cc1 [Compound 86, (S)-4-(1-(1-(4-hydroxybenzyl)-6-(trifluoromethyl)-2,3-dihydro-1H-imidazo[1,2-b]pyrazole-7-carboxamido)ethyl)benzoic Acid], the IC50 is reported as 1.48 nM.
For Cc1cccc(CN2CCn3nc(C(F)(F)F)c(C(=O)N[C@@H](C)c4ccc(C(=O)O)cc4)c32)c1 [Compound 18, (S)-4-(1-(1-(3-methylbenzyl)-6-(trifluoromethyl)-2,3-dihydro-1H-imidazo[1,2-b]pyrazole-7-carboxamido)ethyl)benzoic Acid], the IC50 was 0.64 nM.
C[C@H](NC(=O)c1c(C(F)(F)F)nn2c1N(Cc1ccc(Cl)cc1)CC2)c1ccc(C(=O)O)cc1 [Compound 31, (S)-4-(1-(1-(4-chlorobenzyl)-6-(trifluoromethyl)-2,3-dihydro-1H-imidazo[1,2-b]pyrazole-7-carboxamido)ethyl)benzoic Acid] showed an IC50 of 0.99 nM.
C[C@H](NC(=O)c1c(C(F)(F)F)nn2c1N(Cc1ccc(F)cc1)CC2)c1ccc(C(=O)O)cc1 [Compound 14, (S)-4-(1-(1-(4-fluorobenzyl)-6-(trifluoromethyl)-2,3-dihydro-1H-imidazo[1,2-b]pyrazole-7-carboxamido)ethyl)benzoic Acid] gave an IC50 of 0.58 nM.
Work on C[C@H](NC(=O)c1c(CF)nn2c1N(Cc1cccc(C(F)(F)F)c1)CC2)c1ccc(C(=O)O)cc1 [Compound 91, (S)-4-(1-(6-(Fluoromethyl)-1-(3-(trifluoromethyl)benzyl)-2,3-dihydro-1H-imidazo[1,2-b]pyrazole-7-carboxamido)ethyl)benzoic Acid] yielded an IC50 of 0.636 nM.
C[C@H](NC(=O)c1c(C(F)(F)F)nn2c1N(Cc1cccc(C(F)(F)F)c1)CC2)c1ccc(C(=O)O)c(F)c1 [Compound 25, (S)-2-fluoro-4-(1-(6-(trifluoromethyl)-1-(3-(trifluoromethyl)benzyl)-2,3-dihydro-1H-imidazo[1,2-b]pyrazole-7-carboxamido)ethyl)benzoic acid] was tested, and the IC50 was 1.1 nM.
C[C@H](NC(=O)c1c(C(F)(F)F)nn2c1N(Cc1cccc(I)c1)CC2)c1ccc(C(=O)O)cc1 [Compound 69, (S)-4-(1-(1-(3-iodobenzyl)-6-(trifluoromethyl)-2,3-dihydro-1H-imidazo[1,2-b]pyrazole-7-carboxamido)ethyl)benzoic acid] gave an IC50 of 0.7 nM.
With C[C@H](NC(=O)c1c(C(F)(F)F)nn2c1N(Cc1cccc(COCCF)c1)CC2)c1ccc(C(=O)O)cc1 [Compound 74, (S)-4-(1-(1-(3-((2-fluoroethoxy)methyl)benzyl)-6-(trifluoromethyl)-2,3-dihydro-1H-imidazo[1,2-b]pyrazole-7-carboxamido)ethyl)benzoic Acid] the IC50 was 28 nM.
Work on Cc1nn2c(c1C(=O)N[C@@H](C)c1ccc(C(=O)O)cc1)N(Cc1ccc(Cl)cc1)CC2 [Compound 32, (S)-4-(1-(1-(4-chlorobenzyl)-6-methyl-2,3-dihydro-1H-imidazo[1,2-b]pyrazole-7-carboxamido)ethyl)benzoic Acid] yielded an IC50 of 4.23 nM.
C[C@H](NC(=O)c1c(C(F)(F)F)nn2c1N(Cc1cc(Cl)cc(C(F)(F)F)c1)CC2)c1ccc(C(=O)O)cc1 [Compound 6, (S)-4-(1-(1-(3-chloro-5-(trifluoromethyl)benzyl)-6-(trifluoromethyl)-2,3-dihydro-1H-imidazo[1,2-b]pyrazole-7-carboxamido)ethyl)benzoic Acid] was tested, and the IC50 was 0.14 nM.
With Cc1nn2c(c1C(=O)NCc1ccc(C(=O)O)cc1)N(Cc1ccc(Cl)cc1)CC2 [Compound 33, 4-((1-(4-chlorobenzyl)-6-methyl-2,3-dihydro-1H-imidazo[1,2-b]pyrazole-7-carboxamido)methyl)benzoic Acid] the IC50 was 27.6 nM.
